Here are results for three molecules from US7135487B2, “Sulphonamide derivatives” (Eli Lilly and Company, priority 1997, dated 2006).

In one series the target is T1, human GluR4B (Homo sapiens, UniProt P48058).
T1 construct: expressed in transfected cells; host or cells: HEK (HEK 293)
In words: Fluo3-AM fluorescence test of glutamate-induced response in HEK cells, relative to 100 μM cyclothiazide. The series is classed as cell-based. The settings on record: human GluR4B receptor expressed in HEK 293 cells. As to the method: 96 well plates containing confluent monolayers of HEK cells stably expressing human GluR4B (obtained as described in European Patent Application Publication Number EP-A1–583917) were prepared. The tissue culture medium in the wells was then discarded, and the wells were each washed once with 200 μl of 5NaCa buffer (glucose, 10 mM, sodium chloride, 138 mM, magnesium chloride, 1 mM, potassium chloride, 5 mM, calcium chloride, 5 mM, N-[2-hydroxyethyl]-piperazine-N-[2-ethanesulfonic acid], 10 mM, to pH 7.1 to 7.3). The plates were then incubated for 60 minutes in the dark with 20 μM Fluo3-AM dye (obtained from Molecular Probes Inc, Eugene, Oreg.) in 5 NaCa buffer in each well. After the incubation, each well was washed once with 100 μl 5NaCa buffer, 200 μl of 5NaCa buffer was added and the plates were incubated for 30 minutes. […]
Each test was then performed as follows. […] A first reading was then taken using a FLUOROSKAN II fluorimeter (Obtained from Labsystems, Needham Heights, Mass., USA, a Division of Life Sciences International Plc). […] A second reading was then taken using the fluorimeter. The plate was then left in the fluorimeter for 5 minutes, and a third reading was taken. 15 μl of 400 μM glutamate solution was then added to each well (final glutamate concentration 100 μM), and a fourth reading was taken immediately. Approximately three minutes later, a fifth reading was taken. […]

T1 sequence (P48058 21-902): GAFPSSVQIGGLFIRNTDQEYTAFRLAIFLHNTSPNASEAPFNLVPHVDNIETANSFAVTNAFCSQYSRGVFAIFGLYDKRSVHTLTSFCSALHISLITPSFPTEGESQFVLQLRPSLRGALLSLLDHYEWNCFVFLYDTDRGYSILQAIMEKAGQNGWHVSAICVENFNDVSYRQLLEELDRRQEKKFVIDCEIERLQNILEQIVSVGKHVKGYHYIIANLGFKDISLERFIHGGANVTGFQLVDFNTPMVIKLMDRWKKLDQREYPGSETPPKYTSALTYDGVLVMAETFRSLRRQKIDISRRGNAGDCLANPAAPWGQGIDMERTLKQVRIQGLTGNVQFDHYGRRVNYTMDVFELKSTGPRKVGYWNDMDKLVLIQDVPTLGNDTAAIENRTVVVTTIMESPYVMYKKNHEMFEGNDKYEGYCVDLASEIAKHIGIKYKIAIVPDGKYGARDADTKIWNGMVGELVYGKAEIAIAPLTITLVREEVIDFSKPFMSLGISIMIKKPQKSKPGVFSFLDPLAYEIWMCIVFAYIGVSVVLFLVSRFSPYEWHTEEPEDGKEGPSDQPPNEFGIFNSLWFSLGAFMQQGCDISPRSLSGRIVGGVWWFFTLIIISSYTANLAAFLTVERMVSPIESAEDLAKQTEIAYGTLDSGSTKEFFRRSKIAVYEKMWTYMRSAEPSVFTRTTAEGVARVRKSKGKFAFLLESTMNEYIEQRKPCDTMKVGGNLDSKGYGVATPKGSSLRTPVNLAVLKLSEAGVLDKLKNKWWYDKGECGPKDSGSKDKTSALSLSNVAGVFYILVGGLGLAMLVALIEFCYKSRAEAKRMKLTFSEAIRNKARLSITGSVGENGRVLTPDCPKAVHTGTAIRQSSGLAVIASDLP

In the case of `CC(C)(C)c1ccc(C2(CNS(=O)(=O)C(F)(F)F)CC2)cc1`, the melting point fell in the range of 82 to 84 °C.

Molecule `CC(C)S(=O)(=O)NCC1(c2ccc(C(C)(C)C)cc2)CC1` had a melting point of 87 to 89.5 °C.

For the molecule `NS(=O)(=O)c1cc2c(cc1Cl)NC(C1CC3C=CC1C3)NS2(=O)=O` (stereo not drawn) [cyclothiazide], the “potentiation of agonist-induced excitability of human GluR4B receptor” value at human GluR4B is recorded as “potentiate”.
